{"source": "patent US20110293756A1", "about": "“PREVENTIVES OR REMEDIES FOR TUMOR OR HUMAN PAPILLOMAVIRAL DISEASE” (priority 2001, published 2011)", "key": {"[1]": {"test_system": "cervical carcinoma in situ (CIS)", "assay": "Clinical test in cervical carcinoma in situ (CIS), stage 0", "assay_type": "in vivo, human", "conditions": "2 to 6 weeks of administration; extracts 2 g/day, folic acid 15 mg/day; group A 21, B 15 (8+7), C 8, D 12, E 11 cases; control 0 of 42", "experimental": "A method for the clinical testing was performed in the manner described below under sufficient informed consent. Colposcopy was performed for patients who had been diagnosed to be class IV or V based on the cytobiosis of cervical cancer, portions of their lesions were subjected to biopsy, and then administration of various pharmaceutical preparations was immediately started. Test groups are as shown below. Each group was observed. […]"}, "[2]": {"test_system": "cervical dysplasia (CIN1, CIN2)", "assay": "Clinical test in cervical dysplasia CIN1 / CIN2", "assay_type": "in vivo, human", "conditions": "2 months after administration; extracts 2 g/day, folic acid 15 mg/day; Yokunin 8, hot water 3, ethanol 3, folic acid 5, enzyme/fermentation 6, with folic acid 8 cases; untreated 0 of 15", "experimental": "According to the CIN classification, CIN1 and CIN2 correspond to mild dysplasia and moderate dysplasia, respectively, and CIN3 includes severe dysplasia and the above CIS. Here, the clinical effect of the pharmaceutical preparations of the present invention against the CIN1 and CIN2 is presented.\nA test was conducted for cases, which had been diagnosed to be class III by cytological diagnosis and as having mild dysplasia or moderate dysplasia by histological diagnosis, and carefully followed up without conization, and for which informed consent had been obtained.\nFurther, the enzyme extract of Coix seeds with husks (3 cases)- or the fermentation extract (3 cases) (daily dose of 2 g of the respective extract ingredients)-administered group (6 cases), the enzyme extract of Coix seeds with husks (4 cases) or the fermentation extract (4 cases) (respective daily dose of 2 g as the extract ingredient) compounded with folic acid (15 mg/day)-administered group (8 cases) were observed. […] Test groups are as shown below. Each group was observed.\nEach pharmaceutical preparation was administered over a long period (1 year), and cytological diagnosis and colposcopy were performed every 3 to 4 months."}, "[3]": {"test_system": "koilocytic atypia, mild dysplasia and moderate dysplasia", "conditions": "5 mg/day, 331 patients, six months; cited from earlier work"}, "[4]": {"test_system": "CIN I or CIN II", "conditions": "10 mg/day, 154 cases, 6 months; cited from earlier work"}}}
{"compound": "Nc1nc2ncc(CNc3ccc(C(=O)N[C@@H](CCC(=O)O)C(=O)O)cc3)nc2c(=O)[nH]1", "note": "[folic acid]", "values": [{"measurement": "cases showing disappearance of carcinoma in situ in postoperative histological tests", "setting": "[1]", "result": "none of the cases"}, {"measurement": "cases showing improvement in both cytological diagnosis and colposcopy findings", "setting": "[2]", "result": "None of the cases"}, {"measurement": "improving effect compared with the group orally administered with placebo", "setting": "[3]", "result": "no difference was found"}, {"measurement": "effect compared with the group orally administered with placebo", "setting": "[4]", "result": "no difference was also found"}]}
